Results reported in patent US9388147B2 (Receptos, Inc., priority 2009, dated 2016).
Structures can show the parent of a compound that is named as a salt.

Assays:
[1] = Evaluation of therapeutic index in rats: 5 or 14 day toxicology study, lung to body weight ratio; assay type: in vivo, Sprague-Dawley rat; details: for Dose Resulting in 10% increase in lung weight: rats, oral, 5 or 14 consecutive days, interpolated from dose versus lung to body weight; for TI 14 days: therapeutic index: dose producing 10% lung weight increase / dose producing 50% T-cell depletion, 14 day toxicology study in rats
Method: All studies were conducted in non-fasted male and female Sprague-Dawely rats (Simonsen Laboratories). Rats were housed in an AAALAC accredited facility and the research was approved by the facilities Institutional Animal Care and Use Committee (IACUC). The animals were acclimated to the laboratory for at least 5 days prior to initiation of experiments.
(§1) The compounds listed in Table 6 were formulated as suspensions in a vehicle consisting of 0.5% carboxymethyl cellulose (Acros Organics) in purified water (pH adjusted to ˜2.2 with hydrochloric acid). The same formulation was used in the rat lymphopenia and toxicology studies described below. The concentration of each compound in suspension was verified to be within ±10% of the target concentration by HPLC-UV.
In the toxicology studies, three male and three female rats per group were assigned to dosing groups using body weight based randomization. A control group in each study received vehicle. All animals were dosed orally by gavage on 5 or 14-consecutive days at a dose volume of 5 mL/kg/day. The animals were observed daily for any manifestations of adverse effect. Twenty-four hours after the final study dose, the rats were anesthetized with isoflurane and a terminal blood sample was taken by intra-cardiac puncture for hematology and clinical chemistry evaluation (IDEXX Laboratories, Sacramento, Calif.). The lungs with trachea were collected, weighed, and then prepared for histology by perfusion with 10% neutral buffered formalin via the trachea. The internally fixed lungs were then preserved in 10% neutral buffered formalin and submitted for histological examination (IDEXX).
The dose of each compound resulting in a 10% increase in the lung to terminal body weight ratio was estimated for each compound by linear interpolation. The therapeutic index was estimated as the ratio of the dose producing 10% lung weight increase to the dose producing 50% T-Cell depletion.
(§2) The dose producing a 10% increase in lung to body weight ratio was interpolated from a plot of dose versus lung to body weight. The lymphopenia response was measured 24 hours following the final dose of a 3-5 day multiple dose regimen.

S1P2 = target: T1, S1P2 (Homo sapiens, UniProt O95136); test: Specificity over other S1P receptors: S1P2 CRE-bla CHOK1 reporter assay; assay type: cell-based; details: S1P2 CRE-bla CHOK1, without Forskolin; read-out: S1P2 agonist value (EC50)
T1 construct: expressed in transfected cells; host or cells: CRE-bla CHOK1
Method: (§3) Cells were seeded into 384-well black wall/clear bottom plates at 10^4 cells/well/19.5 μl assay media (DMEM-phenol free, 0.5% charcoal/dextran stripped serum, 2 mM glutamine, 0.1 mM NEAA, 1 mM Na-Pyruvate, 25 mM Hepes) and incubated for 18 hrs at 37° C. in 5% CO2. Dose response curves (10-point) were generated in 10 mM Hepes, 0.1% Pluronic F127, in the presence of Forskolin. Cells were treated with 0.5 μl compound in the presence of 2 μM Forskolin for 4 hrs at 37° C. The FRET-based β-lactamase fluorescent substrate (LiveBLAzer™-FRET B/G Loading Kit CC4-AM; Invitrogen) was prepared according to manufacturer's directions, and incubated with cells for 2 hrs at room temperature. Plates were read at Ex:410/Em:458 and Ex:410/Em:522, and the response ratio determined. Data was analyzed by non-linear regression to determine the EC50 for inhibition of Forskolin induced cAMP.
(§4) To assess compound specificity on other S1P receptors the following cell lines were used: S1P2 CRE-bla CHOK1, S1P3-Gα15 NFAT-bla HEK293T (Invitrogen), S1P4-bla TANGO U2OS (Invitrogen), S1P5-bla TANGO U2OS (Invitrogen). The same assay set up for S1P1 was used but without Forskolin. S1P4 and S1P5 assays were performed in FreeStyle Expression medium (Invitrogen). S1P5 cells were incubated for 48 hrs in prior to treatment with compound.

S1P5 = target: T2, S1P5 (Homo sapiens, UniProt Q9H228); test: Specificity over other S1P receptors: S1P5-bla TANGO U2OS assay; assay type: cell-based; details: read-out: S1P5 agonist value (EC50)
T2 construct: Tango fusion (own knowledge: protease cleavage site plus GAL4-VP16 transcription factor at the receptor's C-terminus); host or cells: U2OS (Tango -bla)
Method: as §3, §4

S1P4 = target: T3, S1P4 (Homo sapiens, UniProt O95977); test: Specificity over other S1P receptors: S1P4-bla TANGO U2OS assay; assay type: cell-based; details: read-out: S1P4 agonist value (EC50)
T3 construct: Tango fusion (own knowledge: protease cleavage site plus GAL4-VP16 transcription factor at the receptor's C-terminus); host or cells: U2OS (Tango -bla)
T3 sequence (O95977 1-384): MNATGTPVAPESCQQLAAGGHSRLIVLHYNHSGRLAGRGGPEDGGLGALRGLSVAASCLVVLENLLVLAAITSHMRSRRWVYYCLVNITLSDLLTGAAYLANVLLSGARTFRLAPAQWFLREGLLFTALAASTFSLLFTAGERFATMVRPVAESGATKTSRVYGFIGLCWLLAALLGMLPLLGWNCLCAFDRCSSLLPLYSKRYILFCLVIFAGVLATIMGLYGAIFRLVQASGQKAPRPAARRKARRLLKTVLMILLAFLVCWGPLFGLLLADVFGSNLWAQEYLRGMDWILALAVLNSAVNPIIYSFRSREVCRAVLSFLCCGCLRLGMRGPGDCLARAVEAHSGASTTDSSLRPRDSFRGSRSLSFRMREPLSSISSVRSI
Method: as §3, §4

peripheral T-cell counts = test: Lymphopenia in rats, 3-5 day multiple dose regimen; assay type: in vivo, rat; details: female rats, oral, 24 h after final dose of a 3-5 day multiple dose regimen
Method: In rats: Female rats (Simonsen Laboratories, Gilroy Calif.) were housed in an ALAAC accredited facility and the research was approved by the facilities Institutional Animal Care and Use Committee (IACUC). The animals were acclimated to the laboratory for at least 5 days prior to initiation of experiments. Rats (n=3/compound/time-point) were dosed by oral gavage with 1 mg/kg compound formulated in a vehicle consisting of 5% DMS0/5% Tween 20 and 90% 0.1N HCL. Control rats were dosed PO with the vehicle. Whole blood was collected from isoflurane anesthetized rats via the retro-orbital sinus and terminal samples were collected by cardiac puncture into EDTA. Whole blood was incubated with mouse anti-rat CD32 (BD #550271), PE-mouse anti-rat CD45R/B220 (BD #554881), PECy5-mouse anti-rat CD4 (BD #554839), and APC-mouse anti-rat CD8a (eBioscience #17-0084) for 30 minutes on ice. Red blood cells were lysed using BD Pharm Lyse Lysing buffer (#555899) and white blood cells were analyzed with a BD FACSArray. Lymphopenia was expressed as the % of white blood cells that were CD4 or CD8 positive T cells. The overall lymphopenia response over 24 h was estimated by calculating the area under the effect curve (AUEC) using the linear trapezoidal rule.
as §1
Prior to the conduct of toxicology studies, the effect of three to five daily doses of each compound on peripheral T-cell counts of female rats was determined (see lymphopenia measurements in rats above). In these lymphopenia studies, blood samples were collected onto EDTA at intervals after the final study dose. The collection times were not identical for each study, however, all studies included a sample collected 24 hours after the final dose. The lymphopenia data was used as a biomarker to select equally pharmacologically active doses for the subsequent toxicology study. […] The high dose in the toxicology study represented a ≧20-fold increment over the low dose.
as §2

S1P3 = target: T4, S1P3 (Homo sapiens, UniProt Q99500); test: Specificity over other S1P receptors: S1P3-Gα15 NFAT-bla HEK293T reporter assay; assay type: cell-based; details: without Forskolin, read-out: S1P3 agonist value (EC50)
T4 construct: host or cells: NFAT-bla HEK293T
Method: as §3, §4

T4 sequence (Q99500 whole entry): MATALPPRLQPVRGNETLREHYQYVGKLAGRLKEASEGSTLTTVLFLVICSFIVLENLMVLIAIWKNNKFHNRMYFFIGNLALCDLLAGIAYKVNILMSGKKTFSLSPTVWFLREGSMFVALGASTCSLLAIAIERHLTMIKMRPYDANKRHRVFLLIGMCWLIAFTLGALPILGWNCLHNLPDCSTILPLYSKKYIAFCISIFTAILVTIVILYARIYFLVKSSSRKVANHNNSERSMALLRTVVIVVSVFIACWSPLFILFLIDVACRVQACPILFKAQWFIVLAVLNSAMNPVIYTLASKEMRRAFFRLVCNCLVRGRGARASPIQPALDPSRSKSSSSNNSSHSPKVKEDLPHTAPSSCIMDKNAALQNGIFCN
T2 sequence (Q9H228 whole entry, the tested form may be a part): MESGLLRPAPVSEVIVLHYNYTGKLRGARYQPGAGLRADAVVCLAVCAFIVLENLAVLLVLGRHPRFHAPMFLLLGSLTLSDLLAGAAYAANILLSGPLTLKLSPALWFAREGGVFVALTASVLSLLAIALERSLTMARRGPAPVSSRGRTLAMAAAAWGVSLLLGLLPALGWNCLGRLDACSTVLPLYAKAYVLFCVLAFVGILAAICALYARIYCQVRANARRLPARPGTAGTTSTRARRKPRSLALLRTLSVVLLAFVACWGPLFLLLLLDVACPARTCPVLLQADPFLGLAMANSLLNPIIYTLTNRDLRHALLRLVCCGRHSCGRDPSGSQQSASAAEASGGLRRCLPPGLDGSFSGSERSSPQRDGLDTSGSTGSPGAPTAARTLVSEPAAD
T1 sequence (O95136 whole entry, species assumed): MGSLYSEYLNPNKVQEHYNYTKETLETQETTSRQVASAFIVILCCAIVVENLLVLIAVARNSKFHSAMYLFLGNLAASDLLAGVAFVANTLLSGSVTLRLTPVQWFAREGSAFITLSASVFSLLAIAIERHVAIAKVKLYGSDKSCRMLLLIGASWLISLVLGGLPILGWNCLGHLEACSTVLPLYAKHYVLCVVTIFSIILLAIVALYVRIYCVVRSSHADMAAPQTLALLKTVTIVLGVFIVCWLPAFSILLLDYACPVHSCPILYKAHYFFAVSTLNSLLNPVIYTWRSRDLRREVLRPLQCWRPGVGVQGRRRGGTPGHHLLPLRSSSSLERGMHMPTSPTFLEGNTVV

SMILES | Dose Resulting in 10% increase in lung weight [1] [mg/kg] | TI 14 days [1] | EC50 (S1P2) [µM] | EC50 (S1P5) [µM] | EC50 (S1P4) [µM] | Dose Producing 50% lymphopenia (peripheral T-cell counts) [mg/kg] | EC50 (S1P3) [µM]
CC(C)Oc1ccc(-c2nc(-c3cccc4c3CC[C@H]4NCCO)no2)cc1C#N [Compound 85, (R)-5-(3-(1-(2-hydroxyethylamino)-2,3-dihydro-1H-inden-4-yl)-1,2,4-oxadiazol-5-yl)-2-isopropoxybenzonitrile] | 2.8 | 14 | 5.69 | 0.0151 | 1.61 | 0.15 | 4.5
CC(C)Oc1ccc(-c2nc(-c3cccc4c3CC[C@H]4N)no2)cc1C#N [Compound 49, (R)-5-(3-(1-amino-2,3-dihydro-1H-inden-4-yl)-1,2,4-oxadiazol-5-yl)-2-isopropoxy-benzonitrile hydrochloride] | 0.2 | 2 | 1.08 | 0.0201 | 9.03 | 0.10 | 8.95
CC(C)Oc1ccc(-c2nc(-c3cccc4c3CC[C@H]4NCC(=O)N(C)C)no2)cc1C#N [Compound 90, (R)-2-(4-(5-(3-cyano-4-isopropoxyphenyl)-1,2,4-oxadiazol-3-yl)-2,3-dihydro-1H-inden-1-ylamino)-N,N-dimethylacetamide hydrochloride] | 5.5 | 14 | 6.66 | 0.0129 | > 10 | 0.40 | 8.82
CC(C)Oc1ccc(-c2nc(-c3cccc4c3CC[C@@H]4NCC(=O)N(C)C)no2)cc1C#N [Compound 91, (S)-2-(4-(5-(3-cyano-4-isopropoxyphenyl)-1,2,4-oxadiazol-3-yl)-2,3-dihydro-1H-inden-1-ylamino)-N,N-dimethylacetamide] | 0.3 | 1 | > 10 | 0.0152 | > 10 | 0.30 | > 10
CC(C)Oc1ccc(-c2nc(-c3cccc4c3CC[C@@H]4N)no2)cc1C#N [Compound 50, (S)-5-(3-(1-amino-2,3-dihydro-1H-inden-4-yl)-1,2,4-oxadiazol-5-yl)-2-isopropoxy-benzonitrile] | 2.0 | 20 | 7.72 | 0.0445 | 7.87 | 0.10 | 8.91
